Test results reported in patent publication US6989377B2, “Treating vitamin D responsive diseases” (priority 1999, dated 2006).

Experiments:
EAE in mice = conditions: cited from earlier work
[1] = tested on: DS-induced colitis in C3H/HeJ male mice; assay: Calcitriol prevention of DS-induced colitis; type: in vivo, mouse
Procedure: Fecal hemoglobin was analyzed in the mice to determine bleeding from a breached intestinal barrier. […] Co., Needham Heights, Mass.), the supernatants were decanted into fresh tubes and stored frozen at -20° C. Hemoglobin in the supernatants was analyzed by a method adapted from Saitoh et al., Digestion, 56:67-75, 1995, and Liem et al., Anal. Biochem., 98:388-393, 1979, with rat hemoglobin as standard (Sigma-Aldrich). The supernatants were diluted 1:25 in TBS. […] The reaction was stopped with 100 μL of 2 M phosphoric acid, and the absorbance at 450 nm was measured with an MRX Revelation Microplate Reader (DYNEX Technologies). […] The mice were euthanized with an i.p. injection of pentobarbital. […] The fixed tissue was embedded in paraffin, sectioned at 6 μm, stained with hematoxylin and eosin, and examined by light microscopy. Scoring was conducted by a veterinary pathologist in blinded fashion. […] Clin. Invest., 98:1010-1020, 1996. The scores were summed to provide a total colitis score for each mouse. […] In particular, age-matched C3H/HeJ male mice were fed a synthetic diet (see Example 6) with or without calcitriol or prednisolone for one week. […] The mice were weighed every 3-4 days thereafter. […] Serum and colon tissue were collected on day 28. Most assays were performed as described in Example 6, and the terminal serum calcium assay was performed as described below. […] The serum was decanted and stored frozen at -20° C. The samples, standards, and buffer blanks (2 μL each) were aliquoted into duplicate wells of a 96-well plate. Calcium reagent working solution (0.25 mL), prepared according to the manufacturer's directions (Sigma Diagnostics, St. Louis, Mo.), was added to each well, and the absorbance at 570 nm was measured.

129-IL-10−/− mice = assay: Spontaneous colitis in strain 129-IL-10-deficient mice; type: in vivo, mouse
Excerpt: This example describes the spontaneous colitis that develops spontaneously in strain 129-IL-10^−/− mice with and without administration of calcitriol. It has been reported that mice made genetically deficient in IL-10 spontaneously develop chronic enterocolitis (Kuhn et al., Cell, 75:263-274, 1993) if resident enteric bacteria is present (Sellon et al., Infect. Immunity, 66:5224-5231, 1998). The effect of calcitriol on spontaneous colitis in 129-IL-10^−/− mice is examined. […] The mice were age 7 weeks when they were exposed to soiled bedding from mice housed under conventional conditions. This was done to provide the enteric bacteria for development of colitis.

Lyme arthritis in mice = conditions: calcitriol administered to mice; cited from earlier work
[2] = tested on: collagen induced arthritis in mice; conditions: calcitriol administered to mice; cited from earlier work
129x1/SvJ male mice = assay: Serum calcium after calcitriol feeding, 129x1/SvJ male mice; type: in vivo, mouse
Procedure: In order to determine serum calcium, blood was collected, allowed to clot, and centrifuged (5,000×g for 10 minutes) at 6° C. The serum was decanted and stored frozen at −20° C. The samples, standards, and buffer blanks (2 μL each) were aliquoted into duplicate wells of a 96-well plate. Calcium reagent working solution (0.25 mL), prepared according to the manufacturer's directions (Sigma Diagnostics, St. Louis, Mo.), was added to each well, and the absorbance at 570 nm was measured.

[3] = given before EAE induction or at stage 1 EAE

C=C1/C(=C\C=C2/CCC[C@]3(C)[C@@H]([C@H](C)CCCC(C)(C)O)CC[C@@H]23)C[C@@H](O)C[C@@H]1O [Calcitriol, 1,25 dihydroxyvitamin D3]
Disease induction for EAE (EAE in mice; calcitriol administered to mice): blocked disease induction
Clonal expansion of Th1 cells producing IFN-γ and TNF-α (EAE in mice; [3]): arrested the clonal expansion of Th1 cells
Transcript accumulation for TGF-β1 and IL-4 in central nervous system and lymph nodes (EAE in mice; [3]): stimulated an increase in transcript accumulation
Peak Hg in Stool ([1]; 50 ng/day in diet from day −7, 1% DS days 0 to 5): 4.3 ± 4.4 mg/g
Effect of pre-treatment on severity of DS-induced IBD ([1]; 50 ng/day pre-treatment): reduced the severity of DS-induced IBD
Colon Histopathology, Distal colon ([1]; 50 ng/day, 1% DS, score 0 to 4): 0.6 ± 0.9
Colon histopathology, Medial colon ([1]; 50 ng/day, 1% DS, score 0 to 4): 0.4 ± 0.9
Colon histopathology, Proximal colon ([1]; 50 ng/day, 1% DS, score 0 to 4): 0.4 ± 0.5
Colon histopathology, Rectum ([1]; 50 ng/day, 1% DS, score 0 to 4): 1.2 ± 1.1
Colon histopathology, Sum ([1]; 50 ng/day, 1% DS, total score 0 to 16): 2.6 ± 1.9
Peak Hg in the stool, lower than that in the prednisolone-treated group ([1]; calcitriol 50 ng/day vs prednisolone 50 ng/day): 65%
Peak Hg in the stool, lower than that in the untreated group ([1]; calcitriol 50 ng/day vs untreated DS group): 37%
Total colon histopathology score, lower than the score of the untreated group B ([1]; calcitriol group C vs group B): 61%
Total colon histopathology score, lower than the score of the prednisolone-treated group D ([1]; calcitriol group C vs group D): 51%
Colon Histopathology, Distal colon (129-IL-10−/− mice; 10 ng/day): 4 ± 0
Colon histopathology, Medial colon (129-IL-10−/− mice; 10 ng/day): 4 ± 0
Colon histopathology, Proximal colon (129-IL-10−/− mice; 10 ng/day): 4 ± 0
Colon histopathology, Rectum (129-IL-10−/− mice; 10 ng/day): 4 ± 0
Colon histopathology, Sum (129-IL-10−/− mice; 10 ng/day): 16 ± 0
Peak hemoglobin in stool (129-IL-10−/− mice; 10 ng/day in synthetic diet): 0 ± 0
Terminal serum calcium (129-IL-10−/− mice; 10 ng/day in synthetic diet): 12.5 ± 1.5 mg/dL
Terminal weight (129-IL-10−/− mice; 10 ng/day in synthetic diet): 19.5 ± 1.5 g
Effect on spontaneous colitis (129-IL-10−/− mice; 129-IL-10−/− mice): did not prevent spontaneous colitis
Hypercalcemia (129-IL-10−/− mice; 129-IL-10−/− mice): developed hypercalcemia
Disease induction for Lyme arthritis (Lyme arthritis in mice): blocked disease induction
Disease induction for collagen induced arthritis [2]: blocked disease induction
Serum Calcium 129x1/SvJ male (129x1/SvJ male mice; 10 ng/d for two weeks): 12.4 ± 0.6 mg/dL
Serum Calcium 129x1/SvJ male (129x1/SvJ male mice; 20 ng/d for two weeks): 11.5 ± 0.1 mg/dL
Serum Calcium 129x1/SvJ male (129x1/SvJ male mice; 50 ng/d for two weeks): 11.5 ± 0.4 mg/dL
Serum Calcium 129x1/SvJ male (129x1/SvJ male mice; 100 ng/d for two weeks): 11.1 ± 1.1 mg/dL
Tolerability of the calcitriol doses (129x1/SvJ male mice; mouse, in vivo): well tolerated
